Data taken from patent publication US20200157088A1, “BENZENE FUSED HETEROCYCLIC COMPOUND AND USE THEREOF” (TAIWANJ PHARMACEUTICALS CO., LTD., priority 2017, published 2020).

These compounds were tested against T1, autotaxin (Homo sapiens, UniProt Q13822) (assay: Autotaxin inhibitor screening assay (choline release from LPC)). Conditions: not given.
T1 construct: purchased Cayman 10803
Format: biochemical
Procedure: Autotaxin activity was measured by choline release from LPC in presence or absence of compound.
Twenty (20) ng autotaxin (10803, Cayman, MI, USA) was incubated with 100 μM 14:0 LPC (855575P, Avanti, AL, USA) in a final volume of 100 μL buffer containing 50 mM Tris pH 8.0, 0.01% Triton X-100, 50 mM CaCl2, 1 unit/ml choline oxidase, 2 unit/ml HRP, 2 mM homovanilic acid (HVA). The relative amount of released choline was measured by HVA fluorescence in a 96-well plate. Fluorescent intensity was determined at λex/λem=320/450 nm every 60 seconds for 90 minutes with a SpectraMax i3 (Molecular Devices, CA, USA). Data analysis was performed using GraphPad Prism (GraphPad, La Jolla Calif., USA).
Inhibition %=[1−SlopeTA−SlopeBlank)/(Slopevehicle−SlopeBlank)]×100%

| SMILES | inhibition at 1 µM [%] |
| --- | --- |
| CN(C(=O)OCc1cc(F)cc(Cl)c1)C1CCc2ccc(C3=CCN(C(=O)CN4C(=O)CSC4=S)CC3)cc21 (centres unmarked) [Compound 97] | > 80 |
| CCC1Oc2ccc(C3=CCN(C(=O)CN4CCOCC4)CC3)cc2C1N(C)C(=O)OCc1cc(Cl)cc(Cl)c1 (centres unmarked) [Compound 120] | < 50 |

Same assay, conditions: inhibition of autotaxin enzyme activity at 1 μM compound; 100 μM 14:0 LPC; read-out: Inhibition

| inhibition at 1 µM [%] | SMILES |
| --- | --- |
| > 80 | Cc1cc(COC(=O)N(C)C2CCc3ccc(C4=CCN(C(=O)CN5C(=O)CSC5=S)CC4)cc32)cc(C(F)(F)F)c1 (centres unmarked) [Compound 94] |
| > 80 | CN(C(=O)OCc1cc(C(F)(F)F)cc(C(F)(F)F)c1)C1CCc2ccc(C3=CCN(C(=O)CN4C(=O)CSC4=S)CC3)cc21 (centres unmarked) [Compound 95] |
| > 80 | CN(C(=O)OCc1cc(Cl)ccc1Cl)C1CCc2ccc(C3=CCN(C(=O)CN4C(=O)CSC4=S)CC3)cc21 (centres unmarked) [Compound 96] |
| > 80 | Cc1oc2ccc(C3=CCN(C(=O)CN4C(=O)CSC4=S)CC3)cc2c1N(C)C(=O)OCc1cc(C(F)(F)F)cc(C(F)(F)F)c1 [Compound 102] |
| 50 to 80 | Cc1oc2ccc(C3=CCN(C(=O)CS(C)(=O)=O)CC3)cc2c1N(C)C(=O)OCc1cc(C(F)(F)F)cc(C(F)(F)F)c1 [Compound 103] |
| > 80 | CCN(C(=O)OCc1cc(C(F)(F)F)cc(C(F)(F)F)c1)c1c(C)oc2ccc(C3=CCN(C(=O)CN4C(=O)CSC4=S)CC3)cc12 [Compound 105] |
| 50 to 80 | Cc1c(N(C)C(=O)OCc2cc(C(F)(F)F)cc(C(F)(F)F)c2)c2cc(C3=CCN(C(=O)CN4C(=O)CSC4=S)CC3)ccc2n1C [Compound 109] |
| > 80 | COc1cc(C2=CCN(C(=O)CN3C(=O)CSC3=S)CC2)cc2c(N(C)C(=O)OCc3cc(C(F)(F)F)cc(C(F)(F)F)c3)coc12 [Compound 112] |
| > 80 | CC1Cc2ccc(C3=CCN(C(=O)CN4C(=O)CSC4=S)CC3)cc2C1N(C)C(=O)OCc1cc(Cl)cc(Cl)c1 (centres unmarked) [Compound 117] |
| 50 to 80 | CCC1Cc2ccc(C3=CCN(C(=O)CN4C(=O)CSC4=S)CC3)cc2C1N(C)C(=O)OCc1cc(Cl)cc(Cl)c1 (centres unmarked) [Compound 119] |
| < 50 | CCC1Cc2ccc(C3=CCN(C(=O)CS(C)(=O)=O)CC3)cc2C1N(C)C(=O)OCc1cc(Cl)cc(Cl)c1 (centres unmarked) [Compound 121] |
| 50 to 80 | O=C(Nc1noc2ccc(C3=CCN(C(=O)CN4C(=O)CSC4=S)CC3)cc12)OCc1cc(Cl)cc(Cl)c1 [Compound 127] |
| 50 to 80 | CN(C(=O)OCc1cc(Cl)cc(Cl)c1)c1noc2ccc(C3=CCN(C(=O)CN4C(=O)CSC4=S)CC3)cc12 [Compound 128] |
| 50 to 80 | CCN(C(=O)OCc1cc(Cl)cc(Cl)c1)c1noc2ccc(C3=CCN(C(=O)CN4C(=O)CSC4=S)CC3)cc12 [Compound 129] |
| > 80 | CCN(C(=O)OCc1cc(Cl)cc(Cl)c1)C1CCc2ccc(C3=CCN(C(=O)CN4C(=O)CSC4=S)CC3)cc21 (centres unmarked) [Compound 130] |
| 50 to 80 | O=C(Nc1noc2ccc(C3=CCN(C(=O)CN4C(=O)CSC4=S)CC3)cc12)OCc1cc(C(F)(F)F)cc(C(F)(F)F)c1 [Compound 131] |
| 50 to 80 | CN(C(=O)OCc1cc(C(F)(F)F)cc(C(F)(F)F)c1)c1noc2ccc(C3=CCN(C(=O)CN4C(=O)CSC4=S)CC3)cc12 [Compound 132] |
| 50 to 80 | CCN(C(=O)OCc1cc(C(F)(F)F)cc(C(F)(F)F)c1)c1noc2ccc(C3=CCN(C(=O)CN4C(=O)CSC4=S)CC3)cc12 [Compound 133] |
| 50 to 80 | CN(C(=O)CCc1cc(Cl)cc(Cl)c1)C1CCc2ccc(C3=CCN(C(=O)CN4C(=O)CSC4=S)CC3)cc21 (centres unmarked) [Compound 137] |
| 50 to 80 | CN(C(=O)CCc1cc(Cl)cc(Cl)c1)C1CCc2ccc(C3=CCN(C(=O)CCS(C)(=O)=O)CC3)cc21 (centres unmarked) [Compound 138] |
| < 50 | CN(C(=O)OCc1cc(Cl)cc(Cl)c1)C1CCc2ccc(C3=CCN(C(=O)N4CCN(S(C)(=O)=O)C4=O)CC3)cc21 (centres unmarked) [Compound 139] |
